SMILES strings stand for the structures.

Take `CC(C)(C)COc1cccc(C[C@@H](NC(=O)c2cccc3c(Cl)cccc23)[C@@H](O)c2cccc(Cl)c2)c1` (racemic): the melting point (usually the temperature of the solid-liquid transition) lay within 142 to 143 °C.

`COc1ccc(N2CCOCC2)c2sc(NC(=O)NC3CCCC3)nc12`: the melting point was 191 to 194 °C.

Consider `CN=C(Cl)c1ccc([N+](=O)[O-])cc1`, for which the melting point is 67 to 73 °C.

Compound `NC(=O)c1cc(C(F)(F)F)cc(F)c1F` showed a melting point of 128 to 130 °C.

Regarding `CC(=O)c1cccc(-c2ccc3c(c2)C(C)(C)OC(=O)N3)c1`, the melting point is 178 to 179 °C.

Compound `O=C(CN1CCCC1)NCc1ccc2c(c1)-c1[nH]nc(-c3ccsc3)c1C2` displayed a melting point of 201 to 204 °C.

Compound `O=Cc1c([N+](=O)[O-])ccc(Cl)c1[N+](=O)[O-]` showed a melting point of 101 to 102 °C.

As for `Cc1c2c(cc(=O)n1CC(C)O)CCC(c1ccccn1)C2` (configuration not stated), the melting point came to 300 °C.

`Oc1ccc(-c2ncc3ncc(-c4cccnc4)cc3n2)cc1` gave a melting point of more than 268 °C.

Compound `CC(C)Cn1nc(O)nc1Cl` yielded a melting point of 84 to 86 °C.

The compound `CCc1cccc2c1N(CC(=O)N1CC3CCC(CC3)C1)C(=O)C(NC(=O)Nc1cccc(-c3nnn[nH]3)c1)N=C2c1ccccc1F` (configuration not stated) showed a melting point of 226 to 232 °C.

For the compound `NNN=CN(N)CC(=O)O`, the melting point was in the range of 148 to 149 °C.

As for `CCCCOc1nc(N)c2[nH]c(=O)n(CCCCNS(=O)(=O)c3ccc(CCC(=O)O)cc3)c2n1`, the melting point lay in the range of 210 to 211 °C.

In turn, `CCOC(=O)CCn1c(CC(=O)OCC)nc2c(N3CCCCC3)cccc21` returned a melting point of 82 to 85 °C.

`COc1cc(CN2CCN(c3ccccc3F)CC2)ccc1OC(=O)N(C)C` had a melting point of 130 to 133 °C.

In turn, `N=C(Nc1ccc(C(=O)O)cc1)Nc1nc(-c2ccccc2)cs1` displayed a melting point of 245 to 247 °C.

Compound `CCCCCc1ccc(C(=O)CCCC(=O)O)cc1` returned a melting point of 104 to 106 °C.

Compound `CCCc1c(CSc2nnc(SCC(=O)O)s2)ccc(C(C)=O)c1O` had a melting point of 116 to 118 °C.

In the case of `CCOC(=O)c1cnc(-c2ccccc2OCC)[nH]c1=O`, the melting point was 144 to 149 °C.

Regarding `O=C(NCC(=O)N(c1ccccc1)c1ccccc1)c1ccc2ccccc2c1`, the melting point was 205 °C.

In the case of `O=C(O)COc1ccc2c(-c3ccc(F)cc3)noc2c1Cl`, the melting point fell in the range of 233 to 237 °C.

In the case of `O=C1OCCN1c1ccc2cc[nH]c2c1`, the melting point is 199 °C.

Take `O=C(CNC(=O)[C@@H]1CCCN1)Nc1ccc([N+](=O)[O-])cc1C(=O)c1ccccc1`: the melting point lay in the range of 165 to 167 °C.

In the case of `CC(C)CCN1C(=O)C2(COc3cc4c(cc32)OCCO4)c2c1ccc1ncsc21` (configuration not stated), the melting point was in the range of 169 to 171 °C.

`O=C(Nc1cccc2c1C(=O)c1c-2n[nH]c1-c1ccc(N2CCC(N3CCCC3)CC2)cc1)NN1CCOCC1` showed a melting point of 247 °C.

Consider `COc1nc(Cl)cnc1NC(=O)OCC(C)C`, for which the melting point lay in the range of 90 to 91 °C.

`CC(=O)CCc1ccc(C(=O)c2ccc(Cl)cc2)cc1` registered a melting point of 91 to 92 °C.

Compound `COC(=O)C=CC(=O)OC(=C1C(=O)N(C(N)=O)c2cc(Cl)c(F)cc21)c1cccs1` yielded a melting point of 184 to 186 °C.

In turn, `CC(C#N)S[C@H](C)[C@](O)(Cn1cncn1)c1ccc(F)cc1F` (some centres not stated) yielded a melting point of 66 to 68 °C.

`Cc1cccc(Nc2cc(Nc3ccc(OCCCO)cc3)ncn2)c1` had a melting point of 196 to 200 °C.

`CC1COc2c(F)c(F)cc3c(=O)[nH]c(=O)n1c23` (configuration not stated) came in with a melting point of 259 to 261 °C.

`CC(=O)NC[C@H]1CN(c2ccc(N3CCC(F)(CN)CC3)c(F)c2)C(=O)O1` came in with a melting point of 152 to 155 °C.

`CC1(C)OC(=O)Nc2ccc(-c3cc(C#N)cc(C#N)c3)cc21` came in with a melting point of 288 to 289 °C.

`CCCc1nc2c(N)nc3ccccc3c2n1CCOCCCSC` returned a melting point of 99 to 101 °C.

In turn, `CC(C)=NOCc1nc2c(N)nc(C)c(C)c2n1CCCCNS(C)(=O)=O` came in with a melting point of 157 to 159 °C.

Take `CSc1nn2c(N)cc(C(C)C)nc2c1S(=O)(=O)c1ccccc1`: the melting point was in the range of 210 to 211 °C.

`CCC(=O)N=c1sc2cccc(C)c2n1N` had a melting point of 175 to 176 °C.

Compound `Cc1ccccc1C(Oc1cc(OCc2ccoc2)ccc1C#N)C(=O)O` (racemic) came in with a melting point of 141 to 143 °C.

In turn, `CC(C)C1COCc2nc3c(N)nc4ccccc4c3n21` (configuration not stated) gave a melting point of 249 to 250 °C.

The compound `CCCCN(CCCC)C(=O)CCCC1(C(=O)NCCC)c2ccccc2-c2ccccc21` had a melting point of 109 to 111 °C.

For the compound `CCCCCN(CCc1ccccc1)C(=O)NCC(C)Cc1ccncc1` (configuration not stated), the melting point lay in the range of 49 to 50 °C.

As to `CC(=O)C(Cl)=NNc1ccc(Oc2ccccc2)cc1`, the melting point lay in the range of 108 to 111 °C.

For `COc1cccc2c1C(=O)c1c(O)c3c(c(O)c1C2=O)CC(O)(C(C)=O)CC3O` (configuration not stated), the melting point was 217 to 221 °C.

`CC(C)=CCOc1ccc(C(=O)C=Cc2ccncc2)c(O)c1`: the melting point fell in the range of 99 to 100 °C.

On to `COC(=O)c1cccc(-c2c(C)cc(OC3CCS(=O)(=O)CC3)cc2C)c1`, for which the melting point is 180 °C.

For the compound `Cc1ccc(S(=O)(=O)OCCC(=C(c2ccccc2)c2ccccc2)c2ccccc2)cc1`, the melting point fell in the range of 137 to 139 °C.

In turn, `O=C(Nc1ccc(S(=O)(=O)C(F)(F)F)cc1Cl)c1c(O)c(C23CC4CC(CC(C4)C2)C3)cc2c1CCC2` showed a melting point of 218 to 219 °C.

The compound `COc1cnc(CS(C)(=O)=O)nc1O` displayed a melting point of 230 °C.

Turning to `CCOC(=O)COc1ccccc1-c1cc(C#N)c(=O)[nH]c1C`, the melting point fell in the range of 188 to 190 °C.

For `c1cc(-c2cc(C3CC3)on2)ccn1`, the melting point lay within 76 to 80 °C.

As for `N#Cc1ccc(-c2ccno2)cc1`, the melting point lay in the range of 148 to 149 °C.

For the compound `Cc1cccc(-c2ccc3c(c2)c2c(n3Cc3ccccc3)COC(=O)C2=O)c1`, the melting point lay in the range of 225 to 226 °C.

`C1CSC(SSCCSSC2=NCCS2)=N1`: the melting point worked out at 102 °C.

With `CC(=N)NS(=O)(=O)C=Cc1ccccc1`, the melting point lay within 130 to 134 °C.

In turn, `CC(C)(C)OC(=O)N1CCC(C(=O)Nc2ccccc2Oc2ccc(Cl)cc2Cl)CC1` gave a melting point of 120 to 121 °C.

In turn, `COc1cc(C=Cc2c(CO)ccc(OC)c2OC)cc(OC)c1OC` gave a melting point of 120 to 121 °C.

`CC1(C)Oc2ccc(C#N)cc2[C@@H](NC(=O)Nc2ccc3c(c2)CN(C(=O)OCC(Cl)(Cl)Cl)C3)[C@@H]1O`: the melting point was in the range of 201 to 203 °C.

In the case of `CC(C)(C)OC(=O)NCC(=O)Nc1cccc(NC(=N)N2CCCC2)c1`, the melting point lay within 182 to 183 °C.

`NS(=O)(=O)c1cc(C(=O)O)cc([N+](=O)[O-])c1-c1ccccc1` registered a melting point of 119 to 121 °C.

`CC(=O)c1cc2c(s1)SCCN(CCCCN1CCN(c3ncccn3)CC1)C2=O` came in with a melting point of 118 to 120 °C.

As for `COc1cc2c(cc1OC(C)C)OC(C)(C)C(Cl)=C2Cl`, the melting point was 80 to 85 °C.

`COC(=O)c1ccc(OC(F)(F)F)c(O)c1` registered a melting point of 95 to 97 °C.

Compound `CCCCCCCCCCCCc1nnn(C(CCCCC)C(=O)Nc2c(OC)cc(OC)cc2OC)n1` (configuration not stated) gave a melting point of 152 to 155 °C.

With `[N-]=[N+]=NC[C@@H]1CN(c2cc(F)c(N3CNC(=O)C3)c(F)c2)C(=O)O1`, the melting point fell in the range of 186 to 188 °C.

`CCOC(=O)c1cn(C)nc1C(F)(F)F` displayed a melting point of 61.5 to 63.1 °C.

As to `COc1ccc(C2=NN(c3cnc4ccccc4n3)C(=O)[C@H]3CC=CC[C@@H]23)cc1OC` (relative stereo), the melting point was 154 to 156 °C.

Compound `CCCCCCCCCCCCCCCCc1cc(OC)nc(N(C)C)n1` gave a melting point of 49 to 50 °C.

For `CCCCCCCCc1ccc(C(=O)C2CC2C(=O)O)cc1` (configuration not stated), the melting point is 45 to 47 °C.

On to `O=C1COCCN1c1ccc([N+](=O)[O-])cc1`, for which the melting point lay in the range of 150 to 152 °C.

Compound `FC(F)(F)c1cccc2snnc12` yielded a melting point of 41 to 44 °C.

Regarding `CNc1sc2c(c1C(=O)c1ccccc1)CCCC2`, the melting point lay in the range of 128 to 130 °C.

Compound `Cn1cncc1C1(C(c2cccs2)c2cccs2)CCOC1=O` (configuration not stated) showed a melting point of 80 °C.

Compound `O=C(Cl)COC(=O)c1ccccc1` displayed a melting point of 25 to 26 °C.

In turn, `CCCCC(=O)c1ccc(Cl)c(Cl)c1` had a melting point of 40 to 41 °C.

The compound `CS(=O)(=O)N1CCCC(NC(=O)C(CC2CCCC2)NC(=O)c2ccco2)C(=O)C1` (configuration not stated) came in with a melting point of 158 to 161 °C.

Compound `Cn1c(=S)ccc2ccccc21` yielded a melting point of 114 °C.

In turn, `N#Cc1cccc(N2Cc3ccccc3CN(C3CCNCC3)C2=O)c1` registered a melting point of 116 °C.

In turn, `CC1Cc2cc(OCc3ccccc3)c(O)cc2C(=O)C1C` (configuration not stated) showed a melting point of 90 to 93 °C.

As for `CSc1nc2c([nH]1)N(Cc1ccc(Cl)cc1)C1NCCN1C2=O` (configuration not stated), the melting point fell in the range of 296 to 297 °C.

For the compound `Nc1ccc2nc3c(c(N)c2c1)C(=O)CCC3`, the melting point was 310 °C.

The compound `CC(=O)Nc1c(C(=O)c2cccc(NS(C)(=O)=O)c2)[nH]c2cc(Cl)ccc12` returned a melting point of 133 to 142 °C.

Turning to `O=[N+]([O-])C=Cc1ccc(O)c(Cl)c1`, the melting point is 127 to 129 °C.

On to `Cc1cc(C(C)(C)C)cc(C)c1[N+](=O)[O-]`, for which the melting point was 80 to 82 °C.

As to `N#Cc1ccc(NC2CCN(Cc3cc(F)c(F)c(F)c3)CC2)nn1`, the melting point is 185 °C.

In turn, `COc1cc2[nH]c(=O)c3c(c2cc1OC)CCN(CCN1CCCCC1)C3` displayed a melting point of 185 to 188 °C.

`Cc1cc2nccc(-c3cccnc3)n2n1`: the melting point was in the range of 182 to 184 °C.

As to `O=C(NCCCCCn1cncn1)c1ccc(Cl)s1`, the melting point was 79 to 81 °C.

With `O=Cc1ccc(Sc2nc3ncccc3[nH]2)o1`, the melting point is 188 °C.

With `NC(=O)c1cccc(-c2nc(-c3ccccc3)c(-c3nc4ccccc4c(=O)n3-c3ccccc3Cl)s2)c1`, the melting point fell in the range of 212 to 214 °C.

Turning to `CCSc1cc(C)nc(SCC)c1NC(=O)CCCCSc1nc2c(C)c(Cl)cc(C(C)C)c2o1`, the melting point was in the range of 141 to 142 °C.

The compound `Cn1c(C(=O)NCCCO)c2ccc(Cl)cc2c1-c1ccccc1` had a melting point of 155 to 160 °C.

Turning to `COc1cccc2c(Cc3nc(-c4ccccc4)co3)coc12`, the melting point was in the range of 101 to 103 °C.

The values above are taken from a melting point compilation (Tetko et al.; mined from patent text by program, amines drawn as free bases though some values may be those of a salt).
